Test results reported in patent publication US4102918A, “Anionic phenylcarboxamide complement inhibitors” (American Cyanamid Company, priority 1977, dated 1978).
Where a name gives a salt, the structure may show the parent alone.

Legend:
Conditions in all cases: activity in wells, two-fold serial dilution assay; higher well number indicates higher activity
[1] = system: late components of human complement (C3-C9); assay: Test, Code 035 (C3-C9 inhibitor), lysis of EAC 142; type: biochemical
Excerpt: (§1) An active inhibitor protects C2 from C1 and C4; (ii) Test, Code 035 (C3-C9 inhibitor) -- This test determines the ability of the late components of human complement (C3-C9) to lyse EAC 142 in the presence of appropriate dilutions of the test compound. An active inhibitor protects EAC 142 from lysis by human C3-C9; (iii) Test, Code 036 (C-shunt inhibitor) -- In this test human erythrocytes rendered fragile are lysed in autologous serum via the shunt pathway activated by cobra venom factor in the presence of appropriate dilutions of the test compound. Inhibition of the shunt pathway results in failure of lysis; (iv) Forssman Vasculitis Test -- Here, the well known complement dependent lesion, Forssman vasculitis, is produced in guinea pigs by intradermal injection of rabbit anti-Forssman antiserum. The lesion is measured in terms of diameter, edema and hemorrhage and the extent to which a combined index of these is inhibited by prior intraperitoneal injection of the test compound at 200 mg/kg is then reported, unless otherwise stated; (v) Forssman Shock Test -- Lethal shock is produced in guinea pigs by an i.v. injection of anti-Forssman antiserum and the harmonic mean death time of treated guinea pigs is compared with that of simultaneous controls; (vi) Complement Level Reduction Test -- In this test, the above dosed guinea pigs, or others, are bled for serum and the complement level is determined in undiluted serum by the capillary tube method of U.S. Pat. No. 3,876,376 and compared to undosed control guinea pigs; and (vii) Cap 50 Test -- Here, appropriate amounts of the test compound are added to a pool of guinea pig serum in vitro, after which the undiluted serum capillary tube assay referred to above is run. The concentration of compound inhibiting 50% is reported.

activated human C1 = molecular target: T1, activated human C1 (Homo sapiens, UniProt P09871); assay: Test, Code 026 (C1 inhibitor); type: biochemical
T1 construct: fluid-phase C2 cleavage in presence of C4
Excerpt: as §1

shunt pathway = assay: Test, Code 036 (C-shunt inhibitor), lysis of fragile human erythrocytes in autologous serum, cobra venom factor activated; type: cell-based
Excerpt: as §1

T1 sequence (P09871 16-688): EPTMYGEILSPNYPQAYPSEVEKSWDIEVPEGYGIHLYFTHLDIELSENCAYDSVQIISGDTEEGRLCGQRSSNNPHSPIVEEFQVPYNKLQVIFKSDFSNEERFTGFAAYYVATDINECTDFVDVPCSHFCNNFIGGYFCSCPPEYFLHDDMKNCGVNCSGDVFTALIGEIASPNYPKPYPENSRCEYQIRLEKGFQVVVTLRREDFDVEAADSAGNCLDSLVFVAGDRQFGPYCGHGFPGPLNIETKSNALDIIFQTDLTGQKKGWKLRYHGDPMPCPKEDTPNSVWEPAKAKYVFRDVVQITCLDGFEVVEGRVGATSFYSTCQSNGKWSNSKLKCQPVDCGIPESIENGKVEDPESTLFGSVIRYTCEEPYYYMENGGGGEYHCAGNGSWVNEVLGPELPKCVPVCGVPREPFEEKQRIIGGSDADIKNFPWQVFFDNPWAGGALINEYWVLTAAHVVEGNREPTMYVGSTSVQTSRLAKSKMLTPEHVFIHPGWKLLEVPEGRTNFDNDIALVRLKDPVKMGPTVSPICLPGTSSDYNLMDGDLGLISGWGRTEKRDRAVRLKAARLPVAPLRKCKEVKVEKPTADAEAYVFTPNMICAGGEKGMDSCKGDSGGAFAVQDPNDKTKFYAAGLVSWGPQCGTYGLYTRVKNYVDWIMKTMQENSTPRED
T1 sequence (P00736 18-705 partner): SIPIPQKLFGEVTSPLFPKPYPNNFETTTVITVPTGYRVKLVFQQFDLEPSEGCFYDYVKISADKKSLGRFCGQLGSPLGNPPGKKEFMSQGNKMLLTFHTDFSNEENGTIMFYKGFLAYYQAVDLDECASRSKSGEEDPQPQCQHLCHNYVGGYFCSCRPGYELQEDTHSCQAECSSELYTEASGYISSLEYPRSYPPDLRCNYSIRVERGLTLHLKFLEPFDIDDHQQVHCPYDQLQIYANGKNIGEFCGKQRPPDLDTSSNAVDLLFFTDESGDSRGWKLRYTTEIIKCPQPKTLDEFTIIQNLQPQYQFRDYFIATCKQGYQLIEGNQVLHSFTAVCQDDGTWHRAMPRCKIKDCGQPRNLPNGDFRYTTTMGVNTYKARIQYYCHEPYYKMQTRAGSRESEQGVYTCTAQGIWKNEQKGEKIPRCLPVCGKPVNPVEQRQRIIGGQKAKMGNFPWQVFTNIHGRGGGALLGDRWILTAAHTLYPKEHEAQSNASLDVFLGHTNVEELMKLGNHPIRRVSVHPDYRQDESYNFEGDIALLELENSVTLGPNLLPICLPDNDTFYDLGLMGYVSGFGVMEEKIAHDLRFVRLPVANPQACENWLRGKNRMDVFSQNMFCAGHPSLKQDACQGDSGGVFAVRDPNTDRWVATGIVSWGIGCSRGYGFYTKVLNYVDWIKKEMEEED
T1 sequence (P02745 23-245 partner): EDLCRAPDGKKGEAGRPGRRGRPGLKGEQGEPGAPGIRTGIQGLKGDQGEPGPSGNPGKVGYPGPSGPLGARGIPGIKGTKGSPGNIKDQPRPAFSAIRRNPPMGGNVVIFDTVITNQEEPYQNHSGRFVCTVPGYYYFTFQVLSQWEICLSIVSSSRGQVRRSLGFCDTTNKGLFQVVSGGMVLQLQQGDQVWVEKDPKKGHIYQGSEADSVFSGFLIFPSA
T1 sequence (P02746 28-253 partner): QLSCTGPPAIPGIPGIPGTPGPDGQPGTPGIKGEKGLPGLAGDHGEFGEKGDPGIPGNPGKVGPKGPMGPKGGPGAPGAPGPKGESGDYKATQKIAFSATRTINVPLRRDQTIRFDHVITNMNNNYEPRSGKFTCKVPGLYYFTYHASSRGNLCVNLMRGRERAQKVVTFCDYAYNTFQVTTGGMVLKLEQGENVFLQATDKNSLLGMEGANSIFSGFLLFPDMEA
T1 sequence (P02747 29-245 partner): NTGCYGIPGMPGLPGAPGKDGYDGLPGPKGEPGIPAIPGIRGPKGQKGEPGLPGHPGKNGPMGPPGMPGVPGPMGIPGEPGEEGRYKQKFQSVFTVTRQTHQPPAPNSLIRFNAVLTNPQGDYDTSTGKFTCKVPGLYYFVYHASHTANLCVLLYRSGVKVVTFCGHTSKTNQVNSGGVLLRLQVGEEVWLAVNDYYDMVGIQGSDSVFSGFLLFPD

SMILES	C-Late 035 Wells [1]	Cl 026 Wells (activated human C1)	Shunt Inhibition 036 Wells (shunt pathway)
O=C(Nc1cc(C(=O)O)c(O)c(S(=O)(=O)O)c1)c1cc(C(=O)Nc2cc(C(=O)O)c(O)c(S(=O)(=O)O)c2)cc([N+](=O)[O-])c1 [5,5'-[(5-Nitro-1,3-phenylene)bis(carbonylimino)]bis[3-sulfosalicylic acid]disodium salt]	N	+2 Wells	N
Nc1cc(C(=O)Nc2cc(C(=O)O)c(O)c(S(=O)(=O)O)c2)cc(C(=O)Nc2cc(C(=O)O)c(O)c(S(=O)(=O)O)c2)c1 [5,5'-[5-Amino-1,3-phenylenebis(carbonylimino)]bis[3-sulfosalicylic acid]disodium salt]	N	+2 Wells	N
O=C(Nc1ccc(O)c(C(=O)O)c1)c1cc(C(=O)Nc2ccc(O)c(C(=O)O)c2)cc([N+](=O)[O-])c1 [5,5'-[5-Nitro-m-phenylenebis(carbonylimino)]disalicylic acid]	N	α	N
